These results are taken from PubChem BioAssay AID179 (DTP/NCI, 2004).

pEC50, pIC50: −log10 of the molar value. Activity calls are given as the source filed them.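 How the source made its calls: active means compounds giving half or more protection of infected cells from virus-caused growth loss, again on retest; inactive means the rest.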

This assay relates to CEM cells HIV-1 protection, formazan growth assay. The experiment in a line: NCI AIDS Antiviral Assay. As to conditions: for pIC50: measured here: growth of uninfected CEM cells. Summed up:
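Screen of anti-HIV-1 activity in human CEM cells using a formazan-based growth measurement at five drug concentrations. Hits with 50% or greater protection were repeated, and confirmation required reproducible complete protection.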

Turning to `COC(=O)CCCCC(c1cc(Cl)c(OC)c(C(=O)OC)c1)c1cc(Cl)c(OC)c(C(=O)OC)c1`, the pEC50 (commonly the negative decadic logarithm of the EC50, by convention in mol/L) was less than 3.70 and the pIC50 (as a rule, the negative decadic logarithm of the IC50, by convention in mol/L) was 4.87. With `CC(=O)Nc1cc2c(O)c(N=Nc3ccc(C(=O)Nc4ccc(N=Nc5ccc(S(=O)(=O)O)cc5)cc4)cc3)c(S(=O)(=O)O)cc2cc1S(=O)(=O)O`, the result was active.

As to `Cc1c(OCCCOc2ccc3c(=O)cc(-c4ccccc4)oc3c2C)ccc2c(=O)cc(-c3ccccc3)oc12`, the pEC50 is less than 4.60 and the pIC50 was less than 4.60. As to `CCn1cc(C(=O)O)c(=O)c2cc(Cl)c(-n3cccc3)cc21`, the outcome was inactive. On to `COc1ccccc1/C=C1\N=C(c2ccccc2)OC1=O`, for which the pEC50 was less than 3.70 and the pIC50 was 4.76. The matching figures for `CCOC(=O)/C=C/[C@@H](CC)O[Si](C(C)C)(C(C)C)C(C)C`: less than 3.70 and less than 3.70. In the same order, the values of `CCOc1ccccc1N1CSc2nnc(-c3ccccc3)n2C1` are less than 3.83 and 4.08.

`CC1=CSC(O)(c2ccc(Cl)cc2)c2noc(=O)n21` (stereo not given): the pEC50 was less than 3.70 and the pIC50 is 3.95. The matching figures for `CC1=Nn2c(nnc2-c2ccc(Cl)cc2)NC(C)(C)C1`: less than 4.21 and less than 4.21. As for `CCN(CC)C(=O)N1CCN(C)CC1`, the pEC50 was less than 3.70, the outcome was inactive and the pIC50 was less than 3.70. Turning to `CSC(=NCCN=C(NS(=O)(=O)c1ccc(Cl)cc1)SC)NS(=O)(=O)c1ccc(Cl)cc1`, the pEC50 is less than 3.70 and the pIC50 was less than 3.70. Turning to `Oc1ccc(C(O)(c2ccccc2)c2ccccc2)cc1`, the pEC50 was less than 4.17 and the pIC50 is 4.38. Take `CCOC(=O)c1cnc2c(ccc3[nH]cccc32)c1=O`: the pEC50 is less than 4.57 and the pIC50 was less than 4.57. In the case of `CCOC(=O)NC(Nc1ccc(S(=O)(=O)Nc2ccc(OC)nn2)cc1)(C(F)(F)F)C(F)(F)F`, the pEC50 is less than 3.70 and the negative-log IC50 (pIC50) is less than 3.70. `CN(C)C1CS(=O)(=O)OC2=C1CCc1sccc12` (stereo not given): the pEC50 was less than 4.60 and the pIC50 was less than 4.60. For the molecule `CS/C(=N\N=C(/C)c1ccccn1)N1CCN(c2ccccn2)CC1`, the pEC50 was less than 3.91 and the pIC50 is 4.76. In the same order, the values of `O=C(CCc1cc(-c2ccco2)n(-c2ccc([N+](=O)[O-])cc2[N+](=O)[O-])n1)Nc1ccccc1` are less than 4.38 and less than 4.38. Turning to `Cc1ccc(S(=O)(=O)Nn2c(S)c(C#N)c(-c3ccc([N+](=O)[O-])cc3)c(C#N)c2=O)cc1`, the pEC50 is less than 3.70 and the pIC50 is 4.51. In the same order, the values of `CC(=O)[CH-]C(=O)c1ccccc1.CC(=O)[CH-]C(=O)c1ccccc1.[CH2-]CCC.[CH2-]CCC.[Sn+4]` are less than 4.33 and 6.11.

With `NC(=O)CCC(N=c1c2ccccc2n(O)c2ccccc12)C(=O)O` (stereo not given), the outcome was inactive. With `COC(=O)/C(=C(\C)C=O)N1C(=O)C(NC(=O)c2ccccc2)C1SSc1nc2ccccc2s1` (stereo not given), the pEC50 is less than 3.70 and the pIC50 was 4.89.

For the molecule `CN=C(NC)N(C)c1nc(=[N+](C)C)ss1`, the outcome was inactive. Take `Cc1occc1C(=S)Nc1ccc(Cl)c(C(=O)OCC(C)C)c1`: the pEC50 was 7.91 and the pIC50 is 4.73.

As to `C=C(C)C(=O)O[C@H]1C/C(CO)=C/CCC(=C)C(OC(C)=O)[C@H]2OC(=O)C(=C)[C@H]12` (stereo not given in full), the pEC50 was less than 3.70 and the pIC50 was 5.98. The matching figures for `N=c1c2c(C(N)=O)cn(C3OC(CO)C(O)C3O)c2ncn1O` (stereo not given): less than 6.70 and 6.72. `O=S(=O)(O)C(O)/C=C/c1ccccc1` (stereo not given): the result was inactive. Take `O=C1C=C(Nc2ccc(Cl)cc2Cl)c2ccccc2C1=O`: the pEC50 is less than 5.77 and the pIC50 was less than 5.77. Turning to `CCC1C(C(=O)Nc2ccccc2C)=C(C)NC(C)=C1c1ccccc1C` (stereo not given), the pEC50 was less than 3.73 and the pIC50 was less than 3.73. As to `NNC(=S)N1CCN(C(=S)NN)CC1`, the pEC50 is less than 3.70 and the pIC50 is 4.82. In the same order, the values of `CCC1=CCN(c2cc(C)ccn2)OC1c1ccccc1` (stereo not given) are less than 4.45 and less than 4.45. In the same order, the values of `Cc1c(C)c(CC(C)(COS(C)(=O)=O)COS(C)(=O)=O)c(C)c(C)c1CC(C)(COS(C)(=O)=O)COS(C)(=O)=O` are less than 4.68 and less than 4.68. In the same order, the values of `CCN(CC)C(=O)COc1cc2c(O)c3c(O)c(C)c4c(c13)C(=O)C(C)(O/C=C/C(OC)C(C)C(OC(C)=O)C(C)C(O)C(C)C(O)C(C)/C=C/C=C(\C)C(=O)N2)O4` (stereo not given) are less than 3.70 and 4.13.

For the molecule `Cn1cc(NC(=O)Nc2cc(C(=O)Nc3cc(C(=O)Nc4cc(C(=O)Nc5ccc(P(=O)(O)O)c6cc(P(=O)(O)O)ccc56)n(C)c4)n(C)c3)n(C)c2)cc1C(=O)Nc1cc(C(=O)Nc2cc(C(=O)Nc3ccc(P(=O)(O)O)c4cc(P(=O)(O)O)ccc34)n(C)c2)n(C)c1`, the pEC50 is 5.89 and the negative-log IC50 (pIC50) was 4.43.

As for `O=[N+]([O-])c1ccccc1SSc1ccccc1[N+](=O)[O-]`, the pEC50 is less than 4.91, the outcome was inactive and the pIC50 is 5.13. Turning to `C[C@H]1COC2=C1C(=O)C(=O)c1c2ccc2c1CCCC2(C)C`, the pEC50 was less than 3.70 and the pIC50 was 5.05. Take `COc1ccc(CN2C(=O)C(=O)N(C)C2=O)c2ccccc12`: the pEC50 was less than 3.70 and the pIC50 was 4.59. In the same order, the values of `CSc1ccc(N2C(=O)C3c4[nH]c5ccccc5c4C4CCC(C(C)(C)C)CC4C3C2=O)cc1` (stereo not given) are less than 5.66 and less than 5.66. Take `NCCOCCOCC(=O)O`: the result was inactive. `CN1CCCc2cc(/C=C\c3ccnc4ccccc34)ccc21`: the pEC50 is 7.20 and the pIC50 was 5.36. As to `COc1cc(N)c2c(c1)SC(C)C(=O)N2` (stereo not given), the pEC50 was less than 3.70 and the pIC50 is 3.73. The matching figures for `CC(=O)C1(N=Nc2ccc(S(=O)(=O)Nc3ccccn3)cc2)CCOC1=O` (stereo not given): less than 3.70 and less than 3.70. In the same order, the values of `CCN(CC)CCCC(C)Nc1cc(C)nc2c1ccc1c2ccc2c(NC(C)CCCN(CC)CC)cc(C)nc21` (stereo not given) are less than 4.18 and 5.40. Consider `CN1CCN(/C(N)=C(\C#N)C(=O)Nc2ccccc2)CC1`, for which the pEC50 was less than 3.70 and the pIC50 is less than 3.70.

Consider `CCOC(=O)Cc1cc(=O)[nH]n(-c2ccccc2)c1=O`, for which the outcome was inactive. On the same count and under the same terms, next, `CCOc1ccc(N2C(=O)NC3(c4ccccc4)N(C)C(=O)N(C)C23c2ccccc2)cc1` (stereo not given): “inactive”. In the case of `C=CCN(CC=C)C(=O)COc1cc2c(O)c3c(O)c(C)c4c(c13)C(=O)C(C)(O/C=C\C(OC)C(C)C(OC(C)=O)C(C)C(O)C(C)C(O)C(C)/C=C\C=C(\C)C(=O)N2)O4` (stereo not given), the pEC50 was less than 3.70 and the pIC50 is 4.77. For `Cn1c(=O)[nH]c2c([nH]c(=O)c(=O)n2C)c1=O`, the pEC50 was less than 3.70 and the pIC50 was less than 3.70. For `COCC1=C(NNC(=O)c2ccncc2)[C@@]2(C)C(=CC1=O)Oc1c(C(C)=O)c(O)c(C)c(O)c12`, the pEC50 is less than 3.70 and the pIC50 was 4.32.

With `CN(C)C(=O)c1cccc(COc2ccc(N3C(N)=NC(N)=NC3(C)C)cc2Cl)c1`, the pEC50 is less than 3.33 and the pIC50 is 6.83. The matching figures for `CC1=CC(C)(C)Nc2ccccc2N1`: less than 3.70 and less than 3.70.

For `Nc1nc(N)c(N=O)c(Nc2ccc(Br)c(Br)c2)n1`, the result was inactive. For the molecule `CC(C)=NNc1snnc1C(N)=O`, the pEC50 is less than 3.70 and the pIC50 was less than 3.70. `COc1ccccc1C1OC2=C(Nc3ccccc3N2)C1=O` (stereo not given): the pEC50 was less than 3.77 and the pIC50 was less than 3.77. Regarding `O=C1C(O)C(O)C(O)C(O)C1O` (stereo not given), the pEC50 is less than 3.70 and the pIC50 is less than 3.70. As to `CCOC(=O)N1C(=S)C(C(=O)OC)(C(=O)OC)N=C1C`, the pEC50 was less than 3.70 and the pIC50 is less than 3.70. For `CCOC(=O)CCn1cnc(N)n1`, the outcome was inactive. For the molecule `C=CC[C@@]1(OC(C)=O)C(=O)C(=O)OC1C1COC(C)(C)O1` (stereo not given in full), the pEC50 was less than 3.70 and the pIC50 was 4.95.

For the molecule `O=[N+]([O-])c1cc(Cl)cc2cc(Cl)cnc12`, the pEC50 was less than 3.70 and the pIC50 is less than 3.70. In the case of `CC(=O)c1sc(-c2nc(C)c(C(=O)/C=C\c3ccc(/C=C\C(=O)c4sc(-c5nc(C)c(C(C)=O)s5)nc4C)cc3)s2)nc1C`, the pEC50 is less than 4.55 and the pIC50 is less than 4.55.

Regarding `NNC(=O)N/N=C1\CNC(=O)C(=O)C1c1nc2ccccc2s1` (stereo not given), the outcome was inactive. In the case of `Cc1cc(C)c2nc3c(c(C(O)C4CCCCN4)c2c1)CC/C3=C\c1ccc(Cl)cc1` (stereo not given), the pEC50 is less than 4.64 and the pIC50 was less than 4.64. `NC(CS)C(=O)O` (stereo not given): the pEC50 is less than 3.74 and the pIC50 is less than 3.74. `O=C(O)Cc1ccc2c(c1)sc1nc(-c3ccc(Br)cc3)cn12`: the pEC50 is less than 3.70 and the pIC50 was 3.85.

With `CC(C)(Oc1ccc(/C=C/C(=O)c2ccccc2)cc1)C(=O)Nc1c(Cl)cccc1Cl`, the pEC50 is less than 5.08 and the pIC50 was less than 5.08.

Regarding `OCCN1OCCCC1c1ccccc1` (stereo not given), the pEC50 was less than 2.92 and the pIC50 is less than 2.92. `COC1Cc2c(C)c(OC(C)=O)c3cccnc3c2O1` (stereo not given): the pEC50 is less than 3.70 and the pIC50 was 4.65. As to `COC1OCC(N)C(O)C1O` (stereo not given), the result was inactive. In the case of `O=C(Nc1ccc(Cl)cc1Cl)C(=O)C(C(=O)c1ccc2ccccc2c1)C1OC(=O)c2ccccc21` (stereo not given), the pEC50 was less than 4.30 and the pIC50 is 4.59. In the same order, the values of `C=C1C2CC[C@H]3C4(C)CCCC(C)(C(=O)O)[C@H]4CCC3(C2)[C@@H]1OC(C)=O` (stereo not given in full) are less than 3.98 and 4.11. In the same order, the values of `O=c1c2ccc(Cl)cc2oc2c(CNc3ccc(S(=O)(=O)Nc4nccs4)cc3)cccc12` are less than 3.82 and less than 3.82.
